Experimental data as given in US8758816B2, “Compositions comprising azelastine and methods of use thereof” (priority 2004, dated 2014).
Structures can show the parent of a compound that is named as a salt.

System: patients with seasonal allergic rhinitis (SAR)
Experiment: MP 428 two-week randomized double-blind study: Total Nasal Symptom Score (TNSS), change from baseline
Assay type: in vivo, human
Set-up: key to Change from Baseline in AM TNSS, Mean / Change from Baseline in AM TNSS, LS Mean / Change from Baseline in AM TNSS, Median: TNSS sum of 4 symptoms each 0-3 (0=none, 3=severe); change from baseline
Protocol: A two-week, randomized, double-blind study, which evaluated the effects of the co-administration of ASTELIN® (azelastine hydrochloride (HCl)) and FLONASE® (fluticasone propionate) compared to either product alone in patients with seasonal allergic rhinitis (SAR) was conducted during the 2006 Texas mountain cedar season. After a 5-day placebo lead-in period, 151 patients with moderate-to-severe allergic rhinitis symptoms were randomized to either: (1) (49 total patients) ASTELIN® (azelastine hydrochloride (HCl)) plus placebo saline nasal spray 2 sprays per nostril, 15 minutes apart, twice daily (AM & PM); (2) (50 total patients) FLONASE® (fluticasone propionate) plus placebo saline nasal spray, 2 sprays per nostril, 15 minutes apart, once daily (AM) and two sessions of placebo saline nasal spray, 2 sprays per nostril, 15 minutes apart (PM); or (3) (52 total patients) the co-administration of ASTELIN® (azelastine hydrochloride (HCl)) 2 sprays per nostril plus FLONASE® (fluticasone propionate) 2 sprays per nostril (AM), 15 minutes apart, and ASTELIN® (azelastine hydrochloride (HCl)) 2 sprays per nostril plus placebo saline nasal spray, 15 minutes apart, (PM) for a 2-week double-blind treatment period.
The primary efficacy variable was the change from baseline in the Total Nasal Symptom Score (TNSS), which comprised sneezing, itchy nose, runny nose, and nasal congestion (individual symptoms scores were assigned a value between 0 and 3, where 0=no symptoms and 3=severe symptoms). This study was not statistically designed to assess the differences between ASTELIN® and FLONASE®.

[1] = Day 9, Intent-to-Treat Population
[2] = Day 10, Intent-to-Treat Population
[3] = Day 10, Per-Protocol Population
[4] = Day 11, Intent-to-Treat Population
[5] = Day 11, Per-Protocol Population
[6] = Day 12, Intent-to-Treat Population

CN1CCCC(n2nc(Cc3ccc(Cl)cc3)c3ccccc3c2=O)CC1 (racemic) [Azelastine, (±)-1-(2H)-phthalazinone, 4-[(4-chlorophenyl)methyl]-2-(hexahydro-1-methyl-1H-azepin-4-yl)-, mono-hydrochloride]
Change from Baseline in AM TNSS, Median [1]: −2.00 | Change from Baseline in AM and PM Combined TNSS, Mean [1]: −5.38 | Change from Baseline in AM and PM Combined TNSS, Median [1]: −3.83 | Change from Baseline in PM TNSS, LS Mean [1]: −2.78 | Change from Baseline in PM TNSS, Mean [1]: −2.86 | Change from Baseline in PM TNSS, Median [1]: −2.33 | Percent Change from Baseline in AM TNSS, LS Mean [1]: −26.38% | Percent Change from Baseline in AM TNSS, Mean [1]: −26.20% | Percent Change from Baseline in AM TNSS, Median [1]: −22.22% | Percent Change from Baseline in AM and PM Combined TNSS, LS Mean [1]: −27.79% | Percent Change from Baseline in AM and PM Combined TNSS, Mean [1]: −27.72% | Percent Change from Baseline in AM and PM Combined TNSS, Median [1]: −19.35% | Percent Change from Baseline in PM TNSS, LS Mean [1]: −28.94% | Percent Change from Baseline in PM TNSS, Mean [1]: −28.91% | Percent Change from Baseline in PM TNSS, Median [1]: −25.00% | Change from Baseline in AM and PM Combined TNSS, LS Mean (Day 9, Intent-to-Treat Population, ANCOVA model): −5.36 | Change from Baseline in AM and PM Combined TNSS, LS Mean (Day 9, Per-Protocol Population): −5.32 | Change from Baseline in AM and PM Combined TNSS, Mean (Day 9, Per-Protocol Population): −5.38 | Change from Baseline in AM and PM Combined TNSS, Median (Day 9, Per-Protocol Population): −3.83 | Percent Change from Baseline in AM and PM Combined TNSS, LS Mean (Day 9, Per-Protocol Population): −27.68% | Percent Change from Baseline in AM and PM Combined TNSS, Mean (Day 9, Per-Protocol Population): −27.72% | Percent Change from Baseline in AM and PM Combined TNSS, Median (Day 9, Per-Protocol Population): −19.35% | Change from Baseline in AM TNSS, LS Mean [2]: −2.29 | Change from Baseline in AM TNSS, Mean [2]: −2.27 | Change from Baseline in AM TNSS, Median [2]: −2.17 | Change from Baseline in AM and PM Combined TNSS, Mean [2]: −5.36 | Change from Baseline in AM and PM Combined TNSS, Median [2]: −5.33 | Change from Baseline in PM TNSS, LS Mean [2]: −3.01 | Change from Baseline in PM TNSS, Mean [2]: −3.08 | Change from Baseline in PM TNSS, Median [2]: −3.00 | Percent Change from Baseline in AM TNSS, LS Mean [2]: −23.62% | Percent Change from Baseline in AM TNSS, Mean [2]: −23.81% | Percent Change from Baseline in AM TNSS, Median [2]: −23.64% | Percent Change from Baseline in AM and PM Combined TNSS, LS Mean [2]: −27.60% | Percent Change from Baseline in AM and PM Combined TNSS, Mean [2]: −27.81% | Percent Change from Baseline in AM and PM Combined TNSS, Median [2]: −28.93% | Percent Change from Baseline in PM TNSS, LS Mean [2]: −31.30% | Percent Change from Baseline in PM TNSS, Mean [2]: −31.29% | Percent Change from Baseline in PM TNSS, Median [2]: −33.33% | Change from Baseline in AM and PM Combined TNSS, LS Mean (Day 10, Intent-to-Treat Population, ANCOVA model): −5.29 | Change from Baseline in AM and PM Combined TNSS, LS Mean [3]: −5.25 | Change from Baseline in AM and PM Combined TNSS, Mean [3]: −5.36 | Change from Baseline in AM and PM Combined TNSS, Median [3]: −5.33 | Percent Change from Baseline in AM and PM Combined TNSS, LS Mean [3]: −27.49% | Percent Change from Baseline in AM and PM Combined TNSS, Mean [3]: −27.81% | Percent Change from Baseline in AM and PM Combined TNSS, Median [3]: −28.93% | Change from Baseline in AM TNSS, LS Mean [4]: −2.53 | Change from Baseline in AM TNSS, Mean [4]: −2.48 | Change from Baseline in AM TNSS, Median [4]: −2.00 | Change from Baseline in AM and PM Combined TNSS, Mean [4]: −5.77 | Change from Baseline in AM and PM Combined TNSS, Median [4]: −4.70 | Change from Baseline in PM TNSS, LS Mean [4]: −3.20 | Change from Baseline in PM TNSS, Mean [4]: −3.29 | Change from Baseline in PM TNSS, Median [4]: −3.33 | Percent Change from Baseline in AM TNSS, LS Mean [4]: −25.86% | Percent Change from Baseline in AM TNSS, Mean [4]: −25.65% | Percent Change from Baseline in AM TNSS, Median [4]: −19.40% | Percent Change from Baseline in AM and PM Combined TNSS, LS Mean [4]: −29.24% | Percent Change from Baseline in AM and PM Combined TNSS, Mean [4]: −29.42% | Percent Change from Baseline in AM and PM Combined TNSS, Median [4]: −26.11% | Percent Change from Baseline in PM TNSS, LS Mean [4]: −32.80% | Percent Change from Baseline in PM TNSS, Mean [4]: −32.77% | Percent Change from Baseline in PM TNSS, Median [4]: −33.96% | Change from Baseline in AM and PM Combined TNSS, LS Mean (Day 11, Intent-to-Treat Population, ANCOVA model): −5.70 | Change from Baseline in AM and PM Combined TNSS, LS Mean [5]: −5.64 | Change from Baseline in AM and PM Combined TNSS, Mean [5]: −5.77 | Change from Baseline in AM and PM Combined TNSS, Median [5]: −4.70 | Percent Change from Baseline in AM and PM Combined TNSS, LS Mean [5]: −29.05% | Percent Change from Baseline in AM and PM Combined TNSS, Mean [5]: −29.42% | Percent Change from Baseline in AM and PM Combined TNSS, Median [5]: −26.11% | Change from Baseline in AM TNSS, LS Mean [6]: −2.60 | Change from Baseline in AM TNSS, Mean [6]: −2.58 | Change from Baseline in AM TNSS, Median [6]: −2.50 | Change from Baseline in AM and PM Combined TNSS, Mean [6]: −5.54 | Change from Baseline in AM and PM Combined TNSS, Median [6]: −5.00 | Change from Baseline in PM TNSS, LS Mean [6]: −2.85 | Change from Baseline in PM TNSS, Mean [6]: −2.96 | Change from Baseline in PM TNSS, Median [6]: −2.40 | Percent Change from Baseline in AM TNSS, LS Mean [6]: −26.61% | Percent Change from Baseline in AM TNSS, Mean [6]: −26.72% | Percent Change from Baseline in AM TNSS, Median [6]: −26.32% | Percent Change from Baseline in AM and PM Combined TNSS, LS Mean [6]: −27.99% | Percent Change from Baseline in AM and PM Combined TNSS, Mean [6]: −28.25% | Percent Change from Baseline in AM and PM Combined TNSS, Median [6]: −25.86% | Percent Change from Baseline in PM TNSS, LS Mean [6]: −29.18% | Percent Change from Baseline in PM TNSS, Mean [6]: −29.44%
